According to ChEMBL document CHEMBL4184317, “Discovery of Tetrahydroquinoxalines as Bromodomain and Extra-Terminal Domain (BET) Inhibitors with Selectivity for the Second Bromodomain” (J Med Chem, 2018):

Assays:
PBMC = assay: cells; details: Homo sapiens, read-out: pIC50 (converted)
Description: Antiinflammatory activity in human PBMC assessed as inhibition of LPS-induced MCP1 release preincubated for 30 mins followed by LPS challenge measured after 24 hrs by immunoassay

[1] = buffer, pH 7.4
Description: Chromatographic hydrophobicity index, log D of the compound at pH 7.4 by HPLC method

[2] = molecular target: Bromodomain-containing protein 4 (Homo sapiens, UniProt O60885, Y97A)
[3] = molecular target: Bromodomain-containing protein 4 (Homo sapiens, UniProt O60885, Y390A)

logD [1]: 4.7
IC50 [2]: 0.2 µM
IC50 [3]: 15.8 µM
Compound: CC(=O)N1c2ccccc2N(Cc2ccccc2CO)CC1C1CC1 (single isomer, unassigned)
IC50 (PBMC): 1 µM
